From article PMC10938783, “A novel pan-PI3K inhibitor KTC1101 synergizes with anti-PD-1 therapy by targeting tumor suppression and immune activation” (Molecular Cancer, 2024)
Several values for one entry are separate records, joined by “and”; a condition that tells them apart may be missing. Equal entries are not always repeated.

Test system: B16 cells gene expression
Assay: RNA-Seq (DEGs, GSEA, heatmaps) of B16 cells
Details: B16 cells, replicates KTC1-KTC3

COc1cc(N)cc2c1nc(C(F)F)n2-c1nc(N2CCCOCC2)nc(N2CCOCC2)n1 [KTC]
Adam19 gene expression (RNA-Seq) (KTC 0.04μM): 11.78 and 12.44 and 13.05
Axl gene expression (RNA-Seq) (KTC 0.04μM): 4.83 and 4.54 and 4.92
Btg1 gene expression (RNA-Seq) (KTC 0.04μM): 6.87 and 7.6 and 7.15
Capg gene expression (RNA-Seq) (KTC 0.04μM): 24.95 and 22.04 and 23.37
Ccl5 gene expression (RNA-Seq) (KTC 0.04μM): 9.15 and 9.99 and 10.19
Ccn1 gene expression (RNA-Seq) (KTC 0.04μM): 37.5 and 41.45 and 42.8
Ccnd1 gene expression (RNA-Seq) (KTC 0.04μM): 70.38 and 71.17 and 69.7
Cx3cl1 gene expression (RNA-Seq) (KTC 0.04μM): 1.55 and 2.17 and 1.72
Cxcl10 gene expression (RNA-Seq) (KTC 0.04μM): 16.76 and 15.67 and 17.26
Dusp1 gene expression (RNA-Seq) (KTC 0.04μM): 4.08 and 4.86 and 3.75
Dusp4 gene expression (RNA-Seq) (KTC 0.04μM): 48.69 and 51.07 and 50.43
Egr1 gene expression (RNA-Seq) (KTC 0.04μM): 0.45 and 0.83 and 0.94
Etv4 gene expression (RNA-Seq) (KTC 0.04μM): 1.8 and 1.31 and 1.55
Fos gene expression (RNA-Seq) (KTC 0.04μM): 5.98 and 9.07 and 3.6
Fosb gene expression (RNA-Seq) (KTC 0.04μM): 5.83 and 8.56 and 1.19
Hes1 gene expression (RNA-Seq) (KTC 0.04μM): 2.93 and 3.6 and 4.11
Irak2 gene expression (RNA-Seq) (KTC 0.04μM): 4.46 and 3.71 and 4.84
Irf6 gene expression (RNA-Seq) (KTC 0.04μM): 0.75 and 0.73 (2×)
Irs2 gene expression (RNA-Seq) (KTC 0.04μM): 4.62 and 4.54 and 4.48
Jag1 gene expression (RNA-Seq) (KTC 0.04μM): 3.9 and 3.6 and 3.87
Junb gene expression (RNA-Seq) (KTC 0.04μM): 5.41 and 5.91 and 6.31
Klf2 gene expression (RNA-Seq) (KTC 0.04μM): 2.37 and 2.53 and 1.84
Klf9 gene expression (RNA-Seq) (KTC 0.04μM): 1.42 and 1.56 and 1.52
Maff gene expression (RNA-Seq) (KTC 0.04μM): 1.99 and 1.97 and 1.81
Myc gene expression (RNA-Seq) (KTC 0.04μM): 51.1 and 50.03 and 54.71
Nfkb2 gene expression (RNA-Seq) (KTC 0.04μM): 19.99 and 21.56 and 22.54
Nfkbia gene expression (RNA-Seq) (KTC 0.04μM): 16.08 and 16.06 and 15.47
Nfkbie gene expression (RNA-Seq) (KTC 0.04μM): 12.93 and 13.17 and 14.09
Nr4a1 gene expression (RNA-Seq) (KTC 0.04μM): 27.6 and 28.38 and 30.22
Nr4a3 gene expression (RNA-Seq) (KTC 0.04μM): 13.97 and 13.13 and 12.62
P2rx7 gene expression (RNA-Seq) (KTC 0.04μM): 9.9 and 10.96 and 10.37
Pde4b gene expression (RNA-Seq) (KTC 0.04μM): 7.81 and 8.81 and 8.51
Pmepa1 gene expression (RNA-Seq) (KTC 0.04μM): 0.72 and 0.75 and 0.79
Pnrc1 gene expression (RNA-Seq) (KTC 0.04μM): 23.22 and 24.79 and 24.57
Relb gene expression (RNA-Seq) (KTC 0.04μM): 7.12 and 7.46 and 7.78
Rgs16 gene expression (RNA-Seq) (KTC 0.04μM): 6.49 and 5.97 and 6.54
Rhob gene expression (RNA-Seq) (KTC 0.04μM): 30.37 and 32.79 and 32.66
Serpine1 gene expression (RNA-Seq) (KTC 0.04μM): 0.22 and 0.24 and 0.32
Sgk1 gene expression (RNA-Seq) (KTC 0.04μM): 3.46 and 3.48 and 3.41
Sgms2 gene expression (RNA-Seq) (KTC 0.04μM): 0.2 and 0.16 and 0.24
Spred2 gene expression (RNA-Seq) (KTC 0.04μM): 15.32 and 15.07 and 16.22
Spry4 gene expression (RNA-Seq) (KTC 0.04μM): 1.16 and 1.17 and 1.15
Tiparp gene expression (RNA-Seq) (KTC 0.04μM): 15.99 and 15.69 and 16.6
Zc3h12a gene expression (RNA-Seq) (KTC 0.04μM): 2.43 and 2.61 and 1.93
Zfp36 gene expression (RNA-Seq) (KTC 0.04μM): 3.85 and 4.04 and 4.57
Adam19 gene expression (RNA-Seq) (KTC 0.2μM): 19.27 and 19.65 and 19.87
Adcy1 gene expression (RNA-Seq) (KTC 0.2μM): 0.05 (2×) and 0.09
Adcy6 gene expression (RNA-Seq) (KTC 0.2μM): 15.71 and 16.34 and 15.68
Adcy7 gene expression (RNA-Seq) (KTC 0.2μM): 24.18 and 23.98 and 24.16
Ahr gene expression (RNA-Seq) (KTC 0.2μM): 3.75 and 3.9 and 4.26
Arrb1 gene expression (RNA-Seq) (KTC 0.2μM): 7.32 and 7.58 and 7.1
Axl gene expression (RNA-Seq) (KTC 0.2μM): 19.13 and 18.11 and 18.34
Bcl3 gene expression (RNA-Seq) (KTC 0.2μM): 1.26 and 1.46 and 1.81
Birc3 gene expression (RNA-Seq) (KTC 0.2μM): 0.82 and 0.69 and 1.02
Btg1 gene expression (RNA-Seq) (KTC 0.2μM): 10.22 and 9.53 and 9.68
Capg gene expression (RNA-Seq) (KTC 0.2μM): 39.95 and 40.18 and 41.23
Ccl5 gene expression (RNA-Seq) (KTC 0.2μM): 26.92 and 30.51 and 26.01
Ccl6 gene expression (RNA-Seq) (KTC 0.2μM): 0.22 (2×) and 0.39
Ccl9 gene expression (RNA-Seq) (KTC 0.2μM): 0.11 and 0.07 and 0.02
Ccl27b gene expression (RNA-Seq) (KTC 0.2μM): 0.37 and 0.93 and 0.69
Ccn1 gene expression (RNA-Seq) (KTC 0.2μM): 43.03 and 43.88 and 47.2
Ccnd1 gene expression (RNA-Seq) (KTC 0.2μM): 93.08 and 94.99 and 95.21
Cish gene expression (RNA-Seq) (KTC 0.2μM): 2.04 and 1.79 and 1.74
Ckap4 gene expression (RNA-Seq) (KTC 0.2μM): 13.31 and 12.58 and 12.66
Cx3cl1 gene expression (RNA-Seq) (KTC 0.2μM): 1.83 and 1.75 and 1.74
Cxcl1 gene expression (RNA-Seq) (KTC 0.2μM): 0.29 and 0.77 and 0.5
Cxcl10 gene expression (RNA-Seq) (KTC 0.2μM): 23.61 and 22.04 and 22.99
Cxcr3 gene expression (RNA-Seq) (KTC 0.2μM): 1.95 and 1.7 and 1.8
Dcps gene expression (RNA-Seq) (KTC 0.2μM): 124.78 and 129.34 and 129.92
Dusp1 gene expression (RNA-Seq) (KTC 0.2μM): 6.18 and 4.88 and 5.31
Dusp4 gene expression (RNA-Seq) (KTC 0.2μM): 74.48 and 66.32 and 71.85
Egr1 gene expression (RNA-Seq) (KTC 0.2μM): 2.42 and 2.39 and 2.31
Egr2 gene expression (RNA-Seq) (KTC 0.2μM): 0.12 and 0.14 and 0.22
Etfbkmt gene expression (RNA-Seq) (KTC 0.2μM): 13.18 and 12.47 and 12.84
Etv4 gene expression (RNA-Seq) (KTC 0.2μM): 2.57 and 3.09 and 3.52
Fos gene expression (RNA-Seq) (KTC 0.2μM): 6.53 and 3.78 and 2.09
Fosb gene expression (RNA-Seq) (KTC 0.2μM): 6.21 and 3 and 0.33
Gnb4 gene expression (RNA-Seq) (KTC 0.2μM): 8.23 and 8.94 and 8.73
Gng11 gene expression (RNA-Seq) (KTC 0.2μM): 47.07 and 50.78 and 52.97
Gsto1 gene expression (RNA-Seq) (KTC 0.2μM): 56.3 and 52.98 and 58.2
Hes1 gene expression (RNA-Seq) (KTC 0.2μM): 4.87 and 4.41 and 5.8
Ifitm3 gene expression (RNA-Seq) (KTC 0.2μM): 48.58 and 48.45 and 50.69
Igf1r gene expression (RNA-Seq) (KTC 0.2μM): 6.64 and 6.31 and 6.49
Ikzf2 gene expression (RNA-Seq) (KTC 0.2μM): 0.58 and 0.65 and 0.83
Il3ra gene expression (RNA-Seq) (KTC 0.2μM): 8.13 and 8.28 and 7.91
Il4ra gene expression (RNA-Seq) (KTC 0.2μM): 0.35 and 0.33 and 0.39
Il15ra gene expression (RNA-Seq) (KTC 0.2μM): 0.8 and 0.77 and 0.98
Il18 gene expression (RNA-Seq) (KTC 0.2μM): 2.98 and 3.73 and 3.81
Irak2 gene expression (RNA-Seq) (KTC 0.2μM): 6.66 and 7.18 and 6.91
Irf6 gene expression (RNA-Seq) (KTC 0.2μM): 0.95 and 0.94 and 0.76
Irs2 gene expression (RNA-Seq) (KTC 0.2μM): 6.99 and 6.74 and 7.06
Jag1 gene expression (RNA-Seq) (KTC 0.2μM): 5.14 and 5.2 and 5.32
Junb gene expression (RNA-Seq) (KTC 0.2μM): 9.95 and 9.21 and 10.31
Klf2 gene expression (RNA-Seq) (KTC 0.2μM): 5.92 and 4.44 and 4.22
Klf4 gene expression (RNA-Seq) (KTC 0.2μM): 1.74 and 0.87 and 0.94
Klf9 gene expression (RNA-Seq) (KTC 0.2μM): 2.21 and 2.14 and 2.03
Lif gene expression (RNA-Seq) (KTC 0.2μM): 0.18 and 0.1 and 0.2
Lrrc8c gene expression (RNA-Seq) (KTC 0.2μM): 9.54 and 9.91 and 9.16
Maff gene expression (RNA-Seq) (KTC 0.2μM): 8.01 and 8.27 and 7.95
Myc gene expression (RNA-Seq) (KTC 0.2μM): 80.51 and 79.74 and 85.17
Nfkb2 gene expression (RNA-Seq) (KTC 0.2μM): 29.06 and 30.4 and 30.6
Nfkbia gene expression (RNA-Seq) (KTC 0.2μM): 28.35 and 27.12 and 24.65
Nfkbie gene expression (RNA-Seq) (KTC 0.2μM): 23.83 and 25.35 and 25
Nr4a1 gene expression (RNA-Seq) (KTC 0.2μM): 46.25 and 44.44 and 46.02
Nr4a3 gene expression (RNA-Seq) (KTC 0.2μM): 17.79 and 16.5 and 17.39
P2rx7 gene expression (RNA-Seq) (KTC 0.2μM): 16.97 and 18.85 and 16.56
Pde4b gene expression (RNA-Seq) (KTC 0.2μM): 11.38 and 11.69 and 11.76
Pim1 gene expression (RNA-Seq) (KTC 0.2μM): 7.35 and 8.15 and 8.02
Plcb2 gene expression (RNA-Seq) (KTC 0.2μM): 0.43 and 0.62 and 0.67
Plcg2 gene expression (RNA-Seq) (KTC 0.2μM): 1.3 and 1.71 and 1.76
Pmepa1 gene expression (RNA-Seq) (KTC 0.2μM): 1.45 and 1.08 and 1.06
Pnrc1 gene expression (RNA-Seq) (KTC 0.2μM): 33.48 and 28.22 and 29.95
Prnp gene expression (RNA-Seq) (KTC 0.2μM): 1380.34 and 1358.49 and 1354.58
Ptk2b gene expression (RNA-Seq) (KTC 0.2μM): 2.37 and 2.08 and 2.03
Relb gene expression (RNA-Seq) (KTC 0.2μM): 11.53 and 13.05 and 11.17
Rgs16 gene expression (RNA-Seq) (KTC 0.2μM): 9.71 and 10 and 9.9
Rhob gene expression (RNA-Seq) (KTC 0.2μM): 60.96 and 58.66 and 58.57
Serpine1 gene expression (RNA-Seq) (KTC 0.2μM): 1.09 and 0.86 and 1.2
Shc3 gene expression (RNA-Seq) (KTC 0.2μM): 0.37 and 0.31 and 0.25
Smad3 gene expression (RNA-Seq) (KTC 0.2μM): 20.9 and 21.03 and 22.24
Smpdl3a gene expression (RNA-Seq) (KTC 0.2μM): 36.94 and 40.39 and 39.45
Spred2 gene expression (RNA-Seq) (KTC 0.2μM): 19.27 and 21.51 and 19.83
Spry4 gene expression (RNA-Seq) (KTC 0.2μM): 2.44 and 2.59 and 2.62
Src gene expression (RNA-Seq) (KTC 0.2μM): 43.09 and 43.5 and 41.98
St3gal4 gene expression (RNA-Seq) (KTC 0.2μM): 75.01 and 74.93 and 70.63
Syt11 gene expression (RNA-Seq) (KTC 0.2μM): 7.36 and 7.81 and 7.47
Tlr2 gene expression (RNA-Seq) (KTC 0.2μM): 0.22 and 0.34 and 0.25
Tlr7 gene expression (RNA-Seq) (KTC 0.2μM): 0.79 and 0.75 and 0.7
Tnfaip3 gene expression (RNA-Seq) (KTC 0.2μM): 0.93 and 0.95 and 0.79
Zc3h12a gene expression (RNA-Seq) (KTC 0.2μM): 3.34 and 3.16 and 3.73
